The test system of assay [1] is recombinant truncated collagenase. In words: Bioassay: cleavage of immobilized peptide by recombinant truncated collagenase, fluorescence of supernatant. The assay is classed as biochemical. The conditions noted are these: for Mean Fluorescence Value ± Deviation: collagenase 10 nM, immobilized peptide 7.5 mg/mL, pH 7.5, 30-60 minutes, excitation 355 nm, emission 460 nm, mean of two measurements. An excerpt: In a second process aspect the invention is a biochemical assay method which comprises reacting in aqueous medium a protease and a substrate peptide or peptide having an amino acid-like moiety in place of an amino acid moiety thereof immobilized on glass beads by a C-terminal linker-anchor and marked by an N-terminal fluorescent marker, separating the resulting glass beads from the supernatant liquid, measuring the fluorescence of the supernatant liquid, and determining from the measured fluorescence the extent of cleavage of the substrate by the protease. By an additional step the site of cleavage of the substrate by the protease can be determined by sequential amino acid analysis.
The protease used was recombinant truncated collagenase of molecular weight 19,000, which was stored at 4° C. as a 10 μM stock aqueous solution and diluted to 30 nM just prior to carrying out the assay with aqueous buffer solution containing tromethamine (TRIS, 50 mM), sodium chloride solution (0.2M), calcium chloride (10 mM), and octoxynol-9 to 10 (Triton X-100, 0.1% v/v), whose pH was adjusted to 7.5 with aqueous sodium hydroxide solution and which was filtered and stored at 4° C. A 2- to 3-mg sample of the immobilized peptide was weighed into a 1.5-mL polypropylene microfuge tube. Sufficient buffer solution was added with vortexing to wet the immobilized peptide and make the concentration thereof 7.5 mg/mL. Sufficient collagenase solution was added to make the concentration thereof 10 nM, the tube was vortexed mechanically for 30-60 minutes, and the reaction was stopped by centrifuging. Part of the supernatant solution (200 μL) was transferred to a well of a 96-well plate. Fluorescence was measured at an excitation wavelength of 355 nm and an emission wavelength of 460 nm. The following mean fluorescence values from two measurements were obtained from the immobilized peptides of Formulas IIIa-r.

The target of assay [2] is monoclonal antibody against β-endorphin. The conditions noted are these: Lam et al., Nature 354, 82-84 (1991); cited from earlier work.
The subject of assay [3] is mouse monoclonal antibody 3E7. The conditions noted are these: Fodor et al., Science 251, 767-773 (1991); checkerboard on glass plate, epifluorescence microscope; cited from earlier work.

Ends that are not written are not given here. * marks the point of attachment. Hcp = 3-(7-hydroxy-4-coumarinyl)propionyl, N-terminal fluorescent marker, O=C(CCc1cc(=O)oc2cc(O)ccc12)*; silane glass bead = not defined here; Ahx = NCCCCCC(=O)O

In the case of “IIIa (Hcp-GPLAMF; not fully specified (C-terminus); also: C-terminus linked via NH(CH2)3Si(OR)2O anchor to glass bead)”, in assay [1], the “Mean Fluorescence Value ± Deviation” value worked out at 2042.5 ± 13.
With “IIIb (Hcp-GPLAMF; not fully specified (C-terminus); also: C-terminus linked via NH(CH2)3Si(OR)2O anchor to glass bead)”, in assay [1], the “Mean Fluorescence Value ± Deviation” value worked out at 3824.5 ± 9.
The same measure, in the same setting: next, “IIIc (Hcp-GPLAMF; not fully specified (C-terminus); also: C-terminus linked via NH(CH2)3Si(OR)2O anchor to glass bead)”: 5733.5 ± 132.
Take “IIId (Hcp-GPLAMF; not fully specified (C-terminus); also: C-terminus linked via NH(CH2)3Si(OR)2O anchor to glass bead)”: the “Mean Fluorescence Value ± Deviation” value in assay [1] came out at 6157.0 ± 72.
For the substance “IIIe (Hcp-GPLAMF; not fully specified (C-terminus); also: C-terminus linked via NH(CH2)3Si(OR)2O anchor to glass bead)”, in assay [1], the “Mean Fluorescence Value ± Deviation” value amounted to 5838.5 ± 170.
The same measure, in the same setting: next, “IIIf (Hcp-GPLAMF; not fully specified (C-terminus); also: C-terminus linked via NH(CH2)3Si(OR)2O anchor to glass bead)”: 7559.5 ± 2551.
For “IIIg (Hcp-GPLAMF; not fully specified (C-terminus); also: C-terminus linked via NH(CH2)3Si(OR)2O anchor to glass bead)”, in assay [1], the “Mean Fluorescence Value ± Deviation” value is on record as 5374.5 ± 53. For the same substance, in assay [1] (immobilized peptides having the linker (Acp)7 (Formulas IIIg and IIIk-r)), the extent of cleavage result is given as “underwent cleavage to the greatest extent”.
“IIIh (Hcp-GPLAMF-{Ahx-Ahx-Ahx-Ahx-Ahx-Ahx-Ahx-Ahx-silane glass bead}; not fully specified; reading uncertain; also: C-terminus linked via NH(CH2)3Si(OR)2O anchor to glass bead)”: the “Mean Fluorescence Value ± Deviation” value in assay [1] is listed as 4723.5 ± 213.
As for “IIIi (Hcp-GPLAMF-{Ahx-Ahx-Ahx-Ahx-Ahx-Ahx-Ahx-Ahx-Ahx-silane glass bead}; not fully specified; reading uncertain; also: C-terminus linked via NH(CH2)3Si(OR)2O anchor to glass bead)”, the “Mean Fluorescence Value ± Deviation” value in assay [1] came to 4238.5 ± 192.
For the substance “IIIj (Hcp-GPLAMF-{Ahx-Ahx-Ahx-Ahx-Ahx-Ahx-Ahx-Ahx-Ahx-Ahx-silane glass bead}; not fully specified; reading uncertain; also: C-terminus linked via NH(CH2)3Si(OR)2O anchor to glass bead)”, the “Mean Fluorescence Value ± Deviation” value in assay [1] is recorded as 3662.5 ± 23.
“IIIk (Hcp-APLALF; not fully specified (C-terminus); also: C-terminus linked via NH(CH2)3Si(OR)2O anchor to glass bead)”: the “Mean Fluorescence Value ± Deviation” value in assay [1] stood at 3316.0 ± 57.
With “IIIl (Hcp-GALALF; not fully specified (C-terminus); also: C-terminus linked via NH(CH2)3Si(OR)2O anchor to glass bead)”, the “Mean Fluorescence Value ± Deviation” value in assay [1] is reported as 707.9 ± 266.
Same read-out and setting: next, “IIIm (Hcp-GPAALF; not fully specified (C-terminus); also: C-terminus linked via NH(CH2)3Si(OR)2O anchor to glass bead)”: 4283.0 ± 150; “IIIn (Hcp-GPLALF; not fully specified (C-terminus); also: C-terminus linked via NH(CH2)3Si(OR)2O anchor to glass bead)”: 2964.5 ± 136.
“IIIo (Hcp-GPLAAF; not fully specified (C-terminus); also: C-terminus linked via NH(CH2)3Si(OR)2O anchor to glass bead)”: the “Mean Fluorescence Value ± Deviation” value in assay [1] is 328.1 ± 0.
Regarding “IIIp (Hcp-GPLALA; not fully specified (C-terminus); also: C-terminus linked via NH(CH2)3Si(OR)2O anchor to glass bead)”, the “Mean Fluorescence Value ± Deviation” value in assay [1] was 1913.5 ± 63.
On the same count and under the same terms, next, “IIIq (Hcp-AAALWAA; not fully specified (C-terminus); also: C-terminus linked via NH(CH2)3Si(OR)2O anchor to glass bead)”: 379.5 ± 115.
As a reminder, the Ki is the dissociation constant of the complex between target and ligand, obtained from inhibition or displacement. As for YGGFL, the Ki in assay [2] is 17.5 ± 3.2 nM. The “binding / detection by antibody 3E7” value in assay [3] is on record as “showed fluorescence”.
Take YGGFQ: the Ki in assay [2] is 15 ± 1.7 nM.

The record behind these values is patent US5872207A, “N-terminal-marked peptides immobilized on glass beads and method of preparation and method of use thereof” (Sanofi Pharmaceuticals, Inc., priority 1995, dated 1999).
